Patent US7560468B2, “Substituted 1,4,8-triazaspiro[4,5]decan-2-one compounds” (Gruenenthal GmbH, priority 2004, dated 2009)

Experiments:
5-HT transporter = target: T1, 5-HT transporter (Rattus norvegicus, UniProt P31652); experiment: Inhibition of 5-HT uptake in synaptosomes; type: biochemical; conditions: for inhibition at 1 µM: read-out: Uptake_5-HT, rat, 1 μM, % inhibition
T1 construct: from tissue; host or cells: rat brain synaptosomes (marrow/medulla and pons), P2 fraction

human CB2 receptor = human CB2 receptor (Homo sapiens, UniProt P34972); experiment: Affinity to the cannabinoid receptor CB2, displacement of [3H]-CP 55,940; conditions: for Inhibition CB2 10 μM, % inhibition: membranes of HEK 293EBNA cells with human CB2 receptor; for inhibition at 10 µM: read-out: Inhibition CB2 10 μM, % inhibition; for Ki: CB2, Cheng Prusoff correction of IC50
Chain of human CB2 receptor (P34972 whole entry): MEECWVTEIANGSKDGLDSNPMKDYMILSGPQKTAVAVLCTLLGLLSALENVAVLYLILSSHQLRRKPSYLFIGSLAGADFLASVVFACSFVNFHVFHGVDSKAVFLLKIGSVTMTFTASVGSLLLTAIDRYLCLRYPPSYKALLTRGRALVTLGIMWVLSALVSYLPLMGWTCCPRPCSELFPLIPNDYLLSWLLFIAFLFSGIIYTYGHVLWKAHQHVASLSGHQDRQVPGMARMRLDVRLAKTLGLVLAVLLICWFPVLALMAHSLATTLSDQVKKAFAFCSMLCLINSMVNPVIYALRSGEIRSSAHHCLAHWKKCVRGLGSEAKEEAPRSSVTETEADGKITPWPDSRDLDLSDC
Experimental: The radioligand used was tritium-labeled 5-(1,1-dimethylheptyl)-2-(5-hydroxypropyl)cyclohexyl)-1-alpha,2-beta,5-alpha)-phenol (^[3]H—CP 55,940 with 103.4 of Ci/mmol, 1 m Ci/mL). Determination was carried out in a test buffer comprising 50 mM of Tris-HCl, 2.5 mm of EDTA, 5 mm of MgCl2 and 1.0 mg/mL of fatty acid-free BSA. The test substances were in each case dissolved in DMSO.
The affinity of the compounds of the invention to the CB2 receptor is determined by their ability to displace ^[3]H—CP from 55,940 of CB2 receptors in membranes of HEK 293 EBNA cells. For this purpose 8 μg of membranes (20 mL of a solution of membranes in a concentration of 400 g/ml) are incubated in wells of a microtiter plate with a 0.33 nM of solution of [3]H-CP 55,949 (120 of Ci/mmol) in a total volume of test buffer of 200 μL for 90 minutes at 30° C.
Subsequently, either the test substances or WIN 55,212-2 for determination the non-specific binding are placed, dissolved in each case in dimethyl sulphoxide, in the wells so that in each case a concentration of the relevant substances of 10 μM is obtained.
Incubation is continued for a further 40 minutes at 30° C. dc. […] The filters are washed nine times with 0.5 mL of ice-cold washing buffer (50 nM of Tris-HCl, 5 mM of MgCl2, 2.5 mm of EDTA, 2% of BSA, pH 7.4), air-dried, placed in scintillation liquid, and the radioactivity is determined with the aid of a scintillation counter.
The percentage displacement of the radio-active ligand ^[3]H—CP 55,940 from its binding to the CB2 receptor is indicated as percentage inhibition of the specific binding. In order to determine Ki the IC50 inhibition concentrations are calculated based on of the percentage displacement achieved by the compounds of the general formula I to be tested at various concentrations causing a 50 percent displacement of the radioactive ligands.

NA transporter = experiment: Inhibition of noradrenalin uptake in synaptosomes; type: biochemical
[1] = tested on: batrachotoxin (BTX) binding site of the sodium channel; experiment: Affinity to the batrachotoxin (BTX) binding site of the sodium channel; conditions: rat cerebrocortex synaptosomes, [3H]-batrachotoxinin A20 α-benzoate 10 nM; test concentration not given

T1 sequence (P31652 whole entry): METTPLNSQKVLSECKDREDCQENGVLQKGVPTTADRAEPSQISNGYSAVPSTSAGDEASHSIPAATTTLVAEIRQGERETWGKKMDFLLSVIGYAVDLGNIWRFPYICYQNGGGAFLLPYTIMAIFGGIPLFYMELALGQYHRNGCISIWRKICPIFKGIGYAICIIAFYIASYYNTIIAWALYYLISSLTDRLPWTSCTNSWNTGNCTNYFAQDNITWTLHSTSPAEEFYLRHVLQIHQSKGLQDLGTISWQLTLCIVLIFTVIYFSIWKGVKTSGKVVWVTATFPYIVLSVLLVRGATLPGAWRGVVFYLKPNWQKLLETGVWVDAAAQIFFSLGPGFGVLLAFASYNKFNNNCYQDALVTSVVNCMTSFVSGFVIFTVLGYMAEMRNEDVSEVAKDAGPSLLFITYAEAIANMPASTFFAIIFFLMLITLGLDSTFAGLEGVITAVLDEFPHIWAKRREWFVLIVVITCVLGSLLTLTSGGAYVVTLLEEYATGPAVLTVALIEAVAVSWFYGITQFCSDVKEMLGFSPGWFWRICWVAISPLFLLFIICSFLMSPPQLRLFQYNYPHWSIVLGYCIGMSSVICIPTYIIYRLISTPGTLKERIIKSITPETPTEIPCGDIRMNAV

| Molecule | Uptake_5-HT, rat, 1 μM, % inhibition (5-HT transporter) [%] | Inhibition CB2 10 μM, % inhibition (human CB2 receptor) [%] | inhibition at 1 µM (5-HT transporter) [%] | inhibition at 10 µM (human CB2 receptor) [%] | Uptake (NA), rat, 10 μM, % inhibition (NA transporter) [%] | BTX Inhibition [1] | Ki (human CB2 receptor) [µM] |
| --- | --- | --- | --- | --- | --- | --- | --- |
| CC(C)C1NC2(CCN(S(=O)(=O)c3ccccc3Cl)CC2)NC1=O (centres unmarked) [Example 8, 8-(2-Chlorobenzolsulfonyl)-3-isopropyl-1,4,8-triazaspiro[4,5]decan-2-one] | 55 | 41 | – | – | – | – | – |
| CCCCN1C(=O)C(C(C)C)NC12CCN(C(=S)NC(C)C)CC2 (centres unmarked) [Example 107, 1-Butyl-3-isopropyl-2-oxo-1,4,8-triazaspiro[4,5]decan-8-thiocarboxylic acid isopropylamide] | – | – | 28 | 56 | – | – | – |
| C=CCN1C(=O)C(CCSC)NC12CCN(S(=O)(=O)c1ccccc1S(C)(=O)=O)CC2 (centres unmarked) [Example 54, 1-Allyl-8-(2-methansulfonylbenzolsulfonyl)-3-(2-methylsulfanylethyl)-1,4,8-triazaspiro[4,5]decan-2-one] | 30 | 56 | – | – | 46 | – | – |
| CCOC(=O)CN1C(=O)C(Cc2ccccc2)NC12CCN(S(=O)(=O)c1ccc(OC)cc1)CC2 (centres unmarked) [Example 50, Ethyl[3-benzyl-8-(4-methoxy-benzolsulfonyl)-2-oxo-1,4,8-triazaspiro[4,5]dec-1-yl]-acetate] | 79 | 52 | – | – | 38 | 32 | – |
| Cc1cc(C)c(C)c(S(=O)(=O)N2CCC3(CC2)NC(Cc2ccccc2)C(=O)N3Cc2ccccc2)c1C (centres unmarked) [Example 24, 1,3-Dibenzyl-8-(2,3,5,6-tetramethylbenzolsulfonyl)-1,4,8-triazaspiro[4,5]decan-2-one] | 66 | 56 | – | – | – | 67 | – |
| CC(C)C1NC2(CCN(C(=S)NCc3ccc(F)cc3)CC2)N(Cc2ccccc2)C1=O (centres unmarked) [Example 179, 1-Benzyl-3-isopropyl-2-oxo-1,4,8-triazaspiro[4,5]decan-8-thiocarboxylic acid 4-fluorobenzylamide] | – | – | 47 | 43 | – | 58 | – |
| CCCCN1C(=O)C(Cc2ccccc2)NC12CCN(S(=O)(=O)c1ccc(C(C)(C)CC)cc1)CC2 (centres unmarked) [Example 28, 3-Benzyl-1-butyl-8-[4-(1,1-dimethylpropyl)benzolesulfonyl]-1,4,8-triazaspiro[4,5]decan-2-one] | 75 | 40 | – | – | – | 41 | – |
| CSCCC1NC2(CCN(C(=S)NCc3ccc(F)cc3)CC2)N(Cc2ccc(F)cc2)C1=O (centres unmarked) [Example 182, 1-(4-Fluorobenzyl)-3-(2-methylsulfanylethyl)-2-oxo-1,4,8-triazaspiro[4,5]decan-8-thiocarboxylic acid 4-fluorobenzylamide] | – | – | 30 | 64 | – | 69 | – |
| CCc1ccc(S(=O)(=O)N2CCC3(CC2)NC(Cc2ccccc2)C(=O)N3Cc2ccccc2)cc1 (centres unmarked) [Example 35, 1,3-Dibenzyl-8-(4-ethylbenzolsulfonyl)-1,4,8-triazaspiro[4,5]decan-2-one] | 79 | 61 | – | – | – | 54 | – |
| 1,3-Dibenzyl-8-(4-methoxy-benzolsulfonyl)-1,4,8-triazaspiro[4,5]decan-2-one [Example 249] | – | 80 | – | – | – | – | 3.5 |
| CSCCC1NC2(CCN(S(=O)(=O)c3ccc(F)cc3F)CC2)N(Cc2cc(C)cc(C)c2)C1=O (centres unmarked) [Example 42, 8-(2,4-Difluorobenzolsulfonyl)-1-(3,5-dimethylbenzyl)-3-(2-methylsulfanylethyl)-1,4,8-triazaspiro[4,5]decan-2-one] | – | 48 | – | – | – | 56 | – |
| CCCCN1C(=O)C(Cc2ccccc2)NC12CCN(S(=O)(=O)c1cccc(Cl)c1)CC2 (centres unmarked) [Example 36, 3-Benzyl-1-butyl-8-(3-chlorobenzolsulfonyl)-1,4,8-triazaspiro[4,5]decan-2-one] | 65 | 40 | – | – | – | 49 | – |
| O=C1C(Cc2ccccc2)NC2(CCN(S(=O)(=O)c3cc(Cl)sc3Cl)CC2)N1Cc1ccccc1 (centres unmarked) [Example 20, 1,3-Dibenzyl-8-(2,5-dichlorothiophen-3-sulfonyl)-1,4,8-triazaspiro[4,5]decan-2-one] | – | – | 81 | 66 | – | 54 | – |
| CCCCOc1ccc(S(=O)(=O)N2CCC3(CC2)NC(Cc2ccccc2)C(=O)N3CC(=O)OCC)cc1 (centres unmarked) [Example 73, Ethyl[3-benzyl-8-(4-butoxy-benzolsulfonyl)-2-oxo-1,4,8-triazaspiro[4,5]dec-1-yl]-acetate] | 80 | 46 | – | – | – | 52 | – |
| CCOc1ccc(NC(=O)N2CCC3(CC2)NC(CCSC)C(=O)N3Cc2ccc3ccccc3c2)cc1 (centres unmarked) [Example 231, 3-(2-Methylsulfanylethyl)-1-naphthalin-2-ylmethyl-2-oxo-1,4,8-triazaspiro[4,5]decan-8-carboxylic acid (4-ethoxy-benzol)amide] | 59 | 49 | – | – | – | 79 | – |
| O=C1C(Cc2ccccc2)NC2(CCN(S(=O)(=O)c3cccs3)CC2)N1Cc1ccccc1 (centres unmarked) [Example 16, 1,3-Dibenzyl-8-(thiophen-2-sulfonyl)-1,4,8-triazaspiro[4,5]decan-2-one] | – | – | 82 | 58 | – | 50 | – |
| CS(=O)(=O)N1CCC2(CC1)NC(Cc1ccccc1)C(=O)N2Cc1ccccc1 (centres unmarked) [Example 246, 1,3-Dibenzyl-8-methansulfonyl-1,4,8-triazaspiro[4,5]decan-2-one] | – | – | – | 50 | – | – | – |
| CSCCC1NC2(CCN(S(=O)(=O)c3ccccc3Cl)CC2)N(Cc2ccccc2[N+](=O)[O-])C1=O (centres unmarked) [Example 82, 8-(2-Chlorobenzolsulfonyl)-3-(2-methylsulfanylethyl)-1-(2-nitrobenzyl)-1,4,8-triazaspiro[4,5]decan-2-one] | 49 | 56 | – | – | – | 71 | – |
| O=C1C(Cc2ccccc2)NC2(CCN(S(=O)(=O)c3ccc([N+](=O)[O-])cc3)CC2)N1Cc1ccccc1 (centres unmarked) [Example 43, 1,3-Dibenzyl-8-(4-nitrobenzolsulfonyl)-1,4,8-triazaspiro[4,5]decan-2-one] | 71 | 62 | – | – | – | 51 | – |
| 1,3-Dibenzyl-8-(4-chlorobenzolsulfonyl)-1,4,8-triazaspiro[4,5]decan-2-one [Example 248] | – | 87 | – | – | – | – | 1.2 |
| O=C1C(Cc2ccccc2)NC2(CCN(C(=S)Nc3cc(C(F)(F)F)ccc3Cl)CC2)N1Cc1ccccc1F (centres unmarked) [Example 188, 3-Benzyl-1-(2-fluorobenzyl)-2-oxo-1,4,8-triazaspiro[4,5]decan-8-thiocarboxylic acid (2-chloro-5-trifluoromethylbenzol)amide] | 59 | 49 | – | – | – | 77 | – |
| CCCCN1C(=O)C(C(C)C)NC12CCN(C(=S)NCc1ccc(Cl)cc1)CC2 (centres unmarked) [Example 150, 1-Butyl-3-isopropyl-2-oxo-1,4,8-triazaspiro[4,5]decan-8-thiocarboxylic acid 4-chlorobenzylamide] | – | – | 51 | – | 30 | 73 | – |
| COc1cc(C)c(S(=O)(=O)N2CCC3(CC2)NC(Cc2ccccc2)C(=O)N3Cc2ccccc2)c(C)c1C (centres unmarked) [Example 31, 1,3-Dibenzyl-8-(4-methoxy-2,3,6-trimethylbenzolsulfonyl)-1,4,8-triazaspiro[4,5]decan-2-one] | 67 | 57 | – | – | – | 82 | – |
| CSCCC1NC2(CCN(C(=O)Nc3cccc(C#N)c3)CC2)N(Cc2ccc(F)cc2)C1=O (centres unmarked) [Example 244, 1-(4-Fluorobenzyl)-3-(2-methylsulfanylethyl)-2-oxo-1,4,8-triazaspiro[4,5]decan-8-carboxylic acid (3-cyanobenzol)amide] | 52 | – | – | – | 32 | 47 | – |
| CCOC(=O)CN1C(=O)C(Cc2ccccc2)NC12CCN(S(=O)(=O)c1ccccc1S(C)(=O)=O)CC2 (centres unmarked) [Example 47, Ethyl[3-benzyl-8-(2-methansulfonylbenzolsulfonyl)-2-oxo-1,4,8-triazaspiro[4,5]dec-1-yl]-acetate] | 71 | – | – | – | 47 | 31 | – |
| O=C1C(Cc2ccccc2)NC2(CCN(C(=S)NCC3CCCCC3)CC2)N1Cc1ccccc1F (centres unmarked) [Example 171, 3-Benzyl-1-(2-fluorobenzyl)-2-oxo-1,4,8-triazaspiro[4,5]decan-8-thiocarboxylic acid cyclohexylmethylamide] | – | – | – | 41 | 34 | 86 | – |
| 8-Benzolsulfonyl-1,3-dibenzyl-1,4,8-triazaspiro[4,5]decan-2-one [Example 247] | – | 72 | – | – | – | – | 4 |
| CSCCC1NC2(CCN(C(=S)Nc3cc(C(F)(F)F)ccc3Cl)CC2)N(Cc2ccccc2C#N)C1=O (centres unmarked) [Example 147, 1-(2-Cyanobenzyl)-3-(2-methylsulfanylethyl)-2-oxo-1,4,8-triazaspiro[4,5]decan-8-thiocarboxylic acid (2-chloro-5-trifluoromethylbenzol)amide] | 33 | 48 | – | – | – | 81 | – |
